Measurements taken from EP0908457B1, “3-(1,2-benzisothiazol- and isoxazol-5-Y1)-2,4(1H,3H)-pyrimidinedione or thione and 3-(1,2-benzisothiazol- and isoxazol-5-y1)-4(3H)-pyrimidinone or thione herbicidal agents” (BASF AKTIENGESELLSCHAFT, priority 1997, dated 1999).

Columns and labels:
[1] = tested on: Monochoria vaginalis, Presl.; test: Preemergence weed control under flooded paddy conditions, MOOVA (Monochoria); format: in vivo; conditions: preemergence, flooded paddy, rated 3-4 weeks after treatment
[2] = tested on: Cyperus serotinus, Rottb.; test: Preemergence weed control under flooded paddy conditions, CYPSE (Flatsedge); format: in vivo; conditions: preemergence, rated 3-4 weeks after treatment
[3] = tested on: Echinochloa oryzoides (Ard.) Fritsch.; test: Preemergence weed control under flooded paddy conditions, ECHORC (Watergrass (Calif.)); format: in vivo; conditions: preemergence, flooded paddy, rated 3-4 weeks after treatment
[4] = tested on: Oryza sativa, (L.) Tebonnet; test: Rice tolerance to post-transplant applications under flooded paddy conditions (Example 187), ORYSAT (Rice, Tebonnet); conditions: rated 3-4 weeks after treatment
Cyperus iria = test: Preemergence weed control under flooded paddy conditions, CYPIR (Rice Flatsedge); format: in vivo; conditions: preemergence, flooded paddy, rated 3-4 weeks after treatment
Sagittaria pygmaea, L. = test: Preemergence weed control under flooded paddy conditions, SAGPY (Arrowhead (Pygmaea)); format: in vivo; conditions: preemergence, flooded paddy, rated 3-4 weeks after treatment
Note: meaning of each grade not given here.

In the case of Cc1ccc(OC(C)(C)C(=O)OCCCl)c(-c2nsc3ccc(-n4c(=O)cc(C(F)(F)F)n(C)c4=O)cc23)c1 [Example 544, Propionic acid, 2-{{2-{5-[3,6-dihydro-3-methyl-2,6-dioxo-4-(trifluoromethyl)-1(2H)-pyrimidinyl]-1,2-benzisothiazol-3-yl}-p-tolyl}oxy}-2-methyl-, 2-chloroethyl ester], the “herbicidal effect rating, MOOVA” value ([1]; Rate 0.0320 kg/ha) is reported as 9.0, the “herbicidal effect rating, MOOVA” value ([1]; Rate 0.0620 kg/ha) is reported as 9.0 and the “herbicidal effect rating, MOOVA” value ([1]; Rate 0.1250 kg/ha) is reported as 9.0. The “herbicidal effect rating, MOOVA” value ([1]; Rate 0.2500 kg/ha) was 9.0, the “herbicidal effect rating, MOOVA” value ([1]; Rate 0.5000 kg/ha) was 9.0 and the “herbicidal effect rating, CYPSE” value ([2]; Rate 0.0320 kg/ha) was 9.0. The “herbicidal effect rating, CYPSE” value ([2]; Rate 0.1250 kg/ha) was 7.0, the “herbicidal effect rating, CYPSE” value ([2]; Rate 0.2500 kg/ha) was 9.0 and the “herbicidal effect rating, CYPSE” value ([2]; Rate 0.5000 kg/ha) was 4.0. For the same molecule, the “herbicidal effect rating, ECHORC” value ([3]; Rate 0.0320 kg/ha) was 5.4, the “herbicidal effect rating, ECHORC” value ([3]; Rate 0.0620 kg/ha) was 5.6 and the “herbicidal effect rating, ECHORC” value ([3]; Rate 0.1250 kg/ha) was 6.4. For the same molecule, the “herbicidal effect rating, ECHORC” value ([3]; Rate 0.2500 kg/ha) was 9.0, the “herbicidal effect rating, ECHORC” value ([3]; Rate 0.5000 kg/ha) was 9.0 and the “herbicidal effect rating ORYSAT” value ([4]; Rate 0.0320 kg/ha) was 4.0. For the same molecule, the “herbicidal effect rating ORYSAT” value ([4]; Rate 0.0620 kg/ha) was 9.0, the “herbicidal effect rating ORYSAT” value ([4]; Rate 0.1250 kg/ha) was 9.0 and the “herbicidal effect rating ORYSAT” value ([4]; Rate 0.2500 kg/ha) was 9.0. For the same molecule, the “herbicidal effect rating ORYSAT” value ([4]; Rate 0.5000 kg/ha) was 8.0, the “herbicidal effect rating, CYPIR” value (Cyperus iria; Rate 0.0320 kg/ha) was 9.0 and the “herbicidal effect rating, CYPIR” value (Cyperus iria; Rate 0.0620 kg/ha) was 9.0. For the same molecule, the “herbicidal effect rating, CYPIR” value (Cyperus iria; Rate 0.1250 kg/ha) was 9.0, the “herbicidal effect rating, CYPIR” value (Cyperus iria; Rate 0.2500 kg/ha) was 9.0 and the “herbicidal effect rating, CYPIR” value (Cyperus iria; Rate 0.5000 kg/ha) was 9.0. For the same molecule, the “herbicidal effect rating, SAGPY” value (Sagittaria pygmaea, L.; Rate 0.0320 kg/ha) was 7.0, the “herbicidal effect rating, SAGPY” value (Sagittaria pygmaea, L.; Rate 0.0620 kg/ha) was 4.0 and the “herbicidal effect rating, SAGPY” value (Sagittaria pygmaea, L.; Rate 0.1250 kg/ha) was 8.0. The “herbicidal effect rating, SAGPY” value (Sagittaria pygmaea, L.; Rate 0.2500 kg/ha) was 9.0 and the “herbicidal effect rating, SAGPY” value (Sagittaria pygmaea, L.; Rate 0.5000 kg/ha) was 9.0.
In the case of Cc1ccc(OC(C)(C)C(=O)OCC(F)(F)F)c(-c2nsc3ccc(-n4c(=O)cc(C(F)(F)F)n(C)c4=O)cc23)c1 [Example 545, Propionic acid, 2-{{2-{5-[3,6-dihydro-3-methyl-2,6-dioxo-4-(trifluoromethyl)-1(2H)-pyrimidinyl]-1,2-benzisothiazol-3-yl}-p-tolyl}oxy}-2-methyl-, 2,2,2-trifluoroethyl ester], the “herbicidal effect rating, MOOVA” value ([1]; Rate 0.0320 kg/ha) is reported as 6.0, the “herbicidal effect rating, MOOVA” value ([1]; Rate 0.0620 kg/ha) is reported as 7.0 and the “herbicidal effect rating, MOOVA” value ([1]; Rate 0.1250 kg/ha) is reported as 9.0. For the same molecule, the “herbicidal effect rating, MOOVA” value ([1]; Rate 0.2500 kg/ha) was 9.0, the “herbicidal effect rating, MOOVA” value ([1]; Rate 0.5000 kg/ha) was 9.0 and the “herbicidal effect rating, CYPSE” value ([2]; Rate 0.0320 kg/ha) was 0.0. For the same molecule, the “herbicidal effect rating, CYPSE” value ([2]; Rate 0.0620 kg/ha) was 0.0, the “herbicidal effect rating, CYPSE” value ([2]; Rate 0.1250 kg/ha) was 9.0 and the “herbicidal effect rating, CYPSE” value ([2]; Rate 0.2500 kg/ha) was 9.0. The “herbicidal effect rating, CYPSE” value ([2]; Rate 0.5000 kg/ha) was 6.0, the “herbicidal effect rating, ECHORC” value ([3]; Rate 0.0320 kg/ha) was 5.6 and the “herbicidal effect rating, ECHORC” value ([3]; Rate 0.0620 kg/ha) was 6.6. For the same molecule, the “herbicidal effect rating, ECHORC” value ([3]; Rate 0.1250 kg/ha) was 7.0, the “herbicidal effect rating, ECHORC” value ([3]; Rate 0.2500 kg/ha) was 9.0 and the “herbicidal effect rating, ECHORC” value ([3]; Rate 0.5000 kg/ha) was 9.0. For the same molecule, the “herbicidal effect rating ORYSAT” value ([4]; Rate 0.0320 kg/ha) was 2.0, the “herbicidal effect rating ORYSAT” value ([4]; Rate 0.0620 kg/ha) was 2.0 and the “herbicidal effect rating ORYSAT” value ([4]; Rate 0.1250 kg/ha) was 4.0. For the same molecule, the “herbicidal effect rating ORYSAT” value ([4]; Rate 0.2500 kg/ha) was 9.0, the “herbicidal effect rating ORYSAT” value ([4]; Rate 0.5000 kg/ha) was 9.0 and the “herbicidal effect rating, CYPIR” value (Cyperus iria; Rate 0.0320 kg/ha) was 4.0. For the same molecule, the “herbicidal effect rating, CYPIR” value (Cyperus iria; Rate 0.0620 kg/ha) was 5.0, the “herbicidal effect rating, CYPIR” value (Cyperus iria; Rate 0.1250 kg/ha) was 6.0 and the “herbicidal effect rating, CYPIR” value (Cyperus iria; Rate 0.2500 kg/ha) was 7.0. For the same molecule, the “herbicidal effect rating, CYPIR” value (Cyperus iria; Rate 0.5000 kg/ha) was 9.0, the “herbicidal effect rating, SAGPY” value (Sagittaria pygmaea, L.; Rate 0.0320 kg/ha) was 0.0 and the “herbicidal effect rating, SAGPY” value (Sagittaria pygmaea, L.; Rate 0.0620 kg/ha) was 0.0. For the same molecule, the “herbicidal effect rating, SAGPY” value (Sagittaria pygmaea, L.; Rate 0.1250 kg/ha) was 4.0, the “herbicidal effect rating, SAGPY” value (Sagittaria pygmaea, L.; Rate 0.2500 kg/ha) was 7.0 and the “herbicidal effect rating, SAGPY” value (Sagittaria pygmaea, L.; Rate 0.5000 kg/ha) was 9.0.
With COCCOC(=O)C(C)(C)Oc1ccc(C)cc1-c1nsc2ccc(-n3c(=O)cc(C(F)(F)F)n(C)c3=O)cc12 [Example 546, Propionic acid, 2-{{2-{5-[3,6-dihydro-3-methyl-2,6-dioxo-4-(trifluoromethyl)-1(2H)-pyrimidinyl]-1,2-benzisothiazol-3-yl}-p-tolyl}oxy}-2-methyl-, 2-methoxyethyl ester] the “herbicidal effect rating, MOOVA” value ([1]; Rate 0.0320 kg/ha) was 6.0, the “herbicidal effect rating, MOOVA” value ([1]; Rate 0.0620 kg/ha) was 7.0 and the “herbicidal effect rating, MOOVA” value ([1]; Rate 0.1250 kg/ha) was 7.0. The “herbicidal effect rating, MOOVA” value ([1]; Rate 0.2500 kg/ha) was 9.0, the “herbicidal effect rating, MOOVA” value ([1]; Rate 0.5000 kg/ha) was 9.0 and the “herbicidal effect rating, CYPSE” value ([2]; Rate 0.0320 kg/ha) was 0.0. The “herbicidal effect rating, CYPSE” value ([2]; Rate 0.0620 kg/ha) was 0.0, the “herbicidal effect rating, CYPSE” value ([2]; Rate 0.1250 kg/ha) was 9.0 and the “herbicidal effect rating, CYPSE” value ([2]; Rate 0.2500 kg/ha) was 9.0. The “herbicidal effect rating, CYPSE” value ([2]; Rate 0.5000 kg/ha) was 0.0, the “herbicidal effect rating, ECHORC” value ([3]; Rate 0.0320 kg/ha) was 4.1 and the “herbicidal effect rating, ECHORC” value ([3]; Rate 0.0620 kg/ha) was 4.3. For the same molecule, the “herbicidal effect rating, ECHORC” value ([3]; Rate 0.1250 kg/ha) was 4.6, the “herbicidal effect rating, ECHORC” value ([3]; Rate 0.2500 kg/ha) was 9.0 and the “herbicidal effect rating, ECHORC” value ([3]; Rate 0.5000 kg/ha) was 9.0. For the same molecule, the “herbicidal effect rating ORYSAT” value ([4]; Rate 0.0320 kg/ha) was 2.0, the “herbicidal effect rating ORYSAT” value ([4]; Rate 0.0620 kg/ha) was 3.0 and the “herbicidal effect rating ORYSAT” value ([4]; Rate 0.1250 kg/ha) was 4.0. For the same molecule, the “herbicidal effect rating ORYSAT” value ([4]; Rate 0.2500 kg/ha) was 7.0, the “herbicidal effect rating ORYSAT” value ([4]; Rate 0.5000 kg/ha) was 6.0 and the “herbicidal effect rating, CYPIR” value (Cyperus iria; Rate 0.0320 kg/ha) was 3.0. For the same molecule, the “herbicidal effect rating, CYPIR” value (Cyperus iria; Rate 0.0620 kg/ha) was 4.0, the “herbicidal effect rating, CYPIR” value (Cyperus iria; Rate 0.1250 kg/ha) was 6.0 and the “herbicidal effect rating, CYPIR” value (Cyperus iria; Rate 0.2500 kg/ha) was 9.0. The “herbicidal effect rating, CYPIR” value (Cyperus iria; Rate 0.5000 kg/ha) was 2.0, the “herbicidal effect rating, SAGPY” value (Sagittaria pygmaea, L.; Rate 0.0320 kg/ha) was 0.0 and the “herbicidal effect rating, SAGPY” value (Sagittaria pygmaea, L.; Rate 0.0620 kg/ha) was 0.0. For the same molecule, the “herbicidal effect rating, SAGPY” value (Sagittaria pygmaea, L.; Rate 0.1250 kg/ha) was 4.0, the “herbicidal effect rating, SAGPY” value (Sagittaria pygmaea, L.; Rate 0.2500 kg/ha) was 9.0 and the “herbicidal effect rating, SAGPY” value (Sagittaria pygmaea, L.; Rate 0.5000 kg/ha) was 9.0.
For Cc1ccc(OC(C)(C)C(=O)OC(C)C)c(-c2nsc3ccc(-n4c(=O)cc(C(F)(F)F)n(C)c4=O)cc23)c1 [Example 547, Propionic acid, 2-{{2-{5-[3,6-dihydro-3-methyl-2,6-dioxo-4-(trifluoromethyl)-1(2H)-pyrimidinyl]-1,2-benzisothiazol-3-yl}-p-tolyl}oxy}-2-methyl-, isopropyl ester], the “herbicidal effect rating, MOOVA” value ([1]; Rate 0.0320 kg/ha) was 9.0, the “herbicidal effect rating, MOOVA” value ([1]; Rate 0.0620 kg/ha) was 9.0 and the “herbicidal effect rating, MOOVA” value ([1]; Rate 0.1250 kg/ha) was 9.0. For the same molecule, the “herbicidal effect rating, MOOVA” value ([1]; Rate 0.2500 kg/ha) was 9.0, the “herbicidal effect rating, MOOVA” value ([1]; Rate 0.5000 kg/ha) was 9.0 and the “herbicidal effect rating, CYPSE” value ([2]; Rate 0.0320 kg/ha) was 6.0. For the same molecule, the “herbicidal effect rating, CYPSE” value ([2]; Rate 0.0620 kg/ha) was 8.0, the “herbicidal effect rating, CYPSE” value ([2]; Rate 0.1250 kg/ha) was 8.0 and the “herbicidal effect rating, CYPSE” value ([2]; Rate 0.2500 kg/ha) was 7.0. For the same molecule, the “herbicidal effect rating, CYPSE” value ([2]; Rate 0.5000 kg/ha) was 0.0, the “herbicidal effect rating, ECHORC” value ([3]; Rate 0.0320 kg/ha) was 5.4 and the “herbicidal effect rating, ECHORC” value ([3]; Rate 0.0620 kg/ha) was 5.4. For the same molecule, the “herbicidal effect rating, ECHORC” value ([3]; Rate 0.1250 kg/ha) was 5.6, the “herbicidal effect rating, ECHORC” value ([3]; Rate 0.2500 kg/ha) was 9.0 and the “herbicidal effect rating, ECHORC” value ([3]; Rate 0.5000 kg/ha) was 9.0. The “herbicidal effect rating ORYSAT” value ([4]; Rate 0.0320 kg/ha) was 2.0, the “herbicidal effect rating ORYSAT” value ([4]; Rate 0.0620 kg/ha) was 3.0 and the “herbicidal effect rating ORYSAT” value ([4]; Rate 0.1250 kg/ha) was 4.0. For the same molecule, the “herbicidal effect rating ORYSAT” value ([4]; Rate 0.2500 kg/ha) was 4.0, the “herbicidal effect rating ORYSAT” value ([4]; Rate 0.5000 kg/ha) was 3.0 and the “herbicidal effect rating, CYPIR” value (Cyperus iria; Rate 0.0320 kg/ha) was 7.0. The “herbicidal effect rating, CYPIR” value (Cyperus iria; Rate 0.0620 kg/ha) was 7.0, the “herbicidal effect rating, CYPIR” value (Cyperus iria; Rate 0.1250 kg/ha) was 9.0 and the “herbicidal effect rating, CYPIR” value (Cyperus iria; Rate 0.2500 kg/ha) was 9.0. The “herbicidal effect rating, CYPIR” value (Cyperus iria; Rate 0.5000 kg/ha) was 9.0, the “herbicidal effect rating, SAGPY” value (Sagittaria pygmaea, L.; Rate 0.0320 kg/ha) was 2.0 and the “herbicidal effect rating, SAGPY” value (Sagittaria pygmaea, L.; Rate 0.0620 kg/ha) was 4.0. The “herbicidal effect rating, SAGPY” value (Sagittaria pygmaea, L.; Rate 0.1250 kg/ha) was 4.0, the “herbicidal effect rating, SAGPY” value (Sagittaria pygmaea, L.; Rate 0.2500 kg/ha) was 7.0 and the “herbicidal effect rating, SAGPY” value (Sagittaria pygmaea, L.; Rate 0.5000 kg/ha) was 3.0.
